Details: Crystal, Rate of evaporation

CC(C)C[C@H](N)C(=O)O [L-leucine]
vapor or sublimation pressure (420.7 K): 0.0009 kPa | vapor or sublimation pressure (440.3 K): 0.0029 kPa | vapor or sublimation pressure (469.9 K): 0.0425 kPa | vapor or sublimation pressure (499.2 K): 0.5263 kPa | vapor or sublimation pressure (517.5 K): 2.162 kPa

— the NIST ThermoML archive (doi:10.1016/j.tca.2008.10.009)
